# Results reported in patent publication US10654828B2 (NOVARTIS AG, priority 2017, dated 2020).
# Read-outs that look alike come from different tables or passages of the source.
# Tests used:
# FoxO3a = FoxO3a inhibition: GFP-FoxO3a nuclear to cytoplasmic translocation reporter assay; type: cell-based; conditions: U2OS GFP-FoxO3a H212R cells, serum starved overnight, compound 30 minutes, ratio of nuclear to cytosolic GFP intensity, DMSO control 0%, read-out: FoxO AC50
# Protocol: (§1) Phosphorylation of AKT on S473 and FoxO3a nuclear to cytoplasmic translocation were used as readouts of PI3K/Akt/mTOR pathway activation downstream of growth factor signaling.
# (§2) Reporter cell line. U2OS GFP-FoxO3a H212R reporter cell line was established by transducing U2OS cells with the retroviral plasmid pLEGFP-C1 containing FoxO3a H212R transgene and selecting for G418 resistant clones.
# (§3) Reporter assay. U2OS GFP-FoxO3a H212R cells were plated in 384-well plates at 4000 cells per well in 30 microliters of McCoy's 5 A medium containing 10% FBS. On day 1 the cells were washed with serum free medium and serum starved overnight. On day 2 the cells were treated with different doses of the compounds for 30 minutes, fixed with 4% Paraformaldehyde for 1 hour and stained with Phospho-AKT (Ser473) antibody (Cell Signaling Technology, catalog #4060) overnight at 4 degrees Celsius. After nuclei staining with Hoechst 33342 (Life Technologies, catalog # H3570) the plates were imaged with InCell 2000 (GE Healthcare Bio-Sciences). FoxO3a inhibition activity is calculated as the ratio of nuclear to cytosolic GFP intensity in percent. AKT activation is measured as the total cellular intensity of Phospho-AKT antibody staining in percent. DMSO control is set as 0% activity.
# AKT = AKT activation: Phospho-AKT (Ser473) antibody staining in reporter cells; type: cell-based; conditions: U2OS GFP-FoxO3a H212R cells, serum starved overnight, compound 30 minutes, total cellular intensity of Phospho-AKT (Ser473) staining, DMSO control 0%
# Protocol: as §1, §2, §3
SMILES,"AC50 (FoxO3a; Homo sapiens, U2OS, 0.5 h) [nM]","AC50 (AKT; Homo sapiens, U2OS, 0.5 h) [nM]",AC50 (FoxO3a) [nM],AC50 (AKT) [nM]
"Cc1cc(C(N)=O)nn1-c1ccc2c(ccn2Cc2ccc(-c3ccc(C(=O)N(C)C)cc3)cc2)c1 [Example 1-35, 1-(1-((4′-(dimethylcarbamoyl)-[1,1′-biphenyl]-4-yl)methyl)-1H-indol-5-yl)-5-methyl-1H-pyrazole-3-carboxamide]",60,217,,
"Cc1cc(C(N)=O)nn1-c1ccc2c(ccn2Cc2ccc(-c3ccc(S(=O)(=O)N(C)C)cc3)cc2)c1 [Example 1-13, 1-(1-((4′-(N,N-dimethylsulfamoyl)-[1,1′-biphenyl]-4-yl)methyl)-1H-indol-5-yl)-5-methyl-1H-pyrazole-3-carboxamide]",84,230,,
"Cc1cc(C(N)=O)nn1-c1ccc2c(ccn2Cc2ccc(-c3ccc4cnccc4c3)cc2)c1 [Example 1-18, 1-(1-(4-(isoquinolin-6-yl)benzyl)-1H-indol-5-yl)-5-methyl-1H-pyrazole-3-carboxamide]",95,352,,
"Cc1cc(C(N)=O)nn1-c1ccc2c(ccn2Cc2ccc(-c3ccc(C#N)cc3)cc2)c1 [Example 1-5, 1-(1-((4′-cyano-[1,1′-biphenyl]-4-yl)methyl)-1H-indol-5-yl)-5-methyl-1H-pyrazole-3-carboxamide]",285,> 10000,,
"Cc1cc(C(N)=O)nn1-c1ccc2c(ccn2Cc2ccc(-c3cccc(S(N)(=O)=O)c3)cc2)c1 [Example 1-20, 5-methyl-1-(1-((3′-sulfamoyl-[1,1′-biphenyl]-4-yl)methyl)-1H-indol-5-yl)-1H-pyrazole-3-carboxamide]",126,> 10000,,
"Cc1cc(C(N)=O)nn1-c1ccc2c(ccn2Cc2ccc(-c3ccc4cc[nH]c4c3)cc2)c1 [Example 1-21, 1-(1-(4-(1H-indol-6-yl)benzyl)-1H-indol-5-yl)-5-methyl-1H-pyrazole-3-carboxamide]",420,2970,,
"Cc1cc(C(N)=O)nn1-c1ccc2c(ccn2Cc2ccc(-c3ccc(S(=O)(=O)CCN(C)C)cc3)cc2)c1 [Example 19-3, 1-(1-((4′-((2-(dimethylamino)ethyl)sulfonyl)-[1,1′-biphenyl]-4-yl)methyl)-1H-indol-5-yl)-5-methyl-1H-pyrazole-3-carboxamide]",99,128,,
"Cc1cc(C(N)=O)nn1-c1ccc2c(ccn2Cc2ccc(-c3ccc(O)c(F)c3)cc2)c1 [Example 1-15, 1-(1-((3′-fluoro-4′-hydroxy-[1,1′-biphenyl]-4-yl)methyl)-1H-indol-5-yl)-5-methyl-1H-pyrazole-3-carboxamide]",56,172,,
"Cc1cc(C(N)=O)nn1-c1ccc2c(ccn2Cc2ccc(C3=CCCN(C)C3)cc2)c1 [Example 1-8, 5-methyl-1-(1-(4-(1-methyl-1,2,5,6-tetrahydropyridin-3-yl)benzyl)-1H-indol-5-yl)-1H-pyrazole-3-carboxamide]",517,> 10000,,
"Cc1cc(C(N)=O)nn1-c1ccc2c(ccn2Cc2ccc(-c3ccc4c(c3)CCNC4=O)cc2)c1 [Example 1-25, 5-methyl-1-(1-(4-(1-oxo-1,2,3,4-tetrahydroisoquinolin-6-yl)benzyl)-1H-indol-5-yl)-1H-pyrazole-3-carboxamide]",56,197,,
"Cc1cc(C(N)=O)nn1-c1ccc2c(ccn2Cc2ccc(-c3ccc(C(=O)NCCN4CCOCC4)cc3)cc2)c1 [Example 1-38, 5-methyl-1-(1-((4′-((2-morpholinoethyl)carbamoyl)-[1,1′-biphenyl]-4-yl)methyl)-1H-indol-5-yl)-1H-pyrazole-3-carboxamide]",78,240,,
"Cc1cc(C(N)=O)nn1-c1ccc2c(ccn2Cc2ccc([C@@H]3C[C@@H]4CN(CC5CC5)C[C@@H]4C3)cc2)c1 [Example 40, 1-(1-(4-((3aR,5r,6aS)-2-(cyclopropylmethyl)octahydrocyclopenta[c]pyrrol-5-yl)benzyl)-1H-indol-5-yl)-5-methyl-1H-pyrazole-3-carboxamide]",161,1220,,
"COCCCc1cn(Cc2ccc(-c3ccc(S(C)(=O)=O)cc3)cc2)c2ccc(-n3nc(C(N)=O)cc3C)cc12 [Example 23, 1-(3-(3-methoxypropyl)-1-((4′-(methylsulfonyl)-[1,1′-biphenyl]-4-yl)methyl)-1H-indol-5-yl)-5-methyl-1H-pyrazole-3-carboxamide]",56,173,,
"Cc1cc(C(N)=O)nn1-c1ccc2c(ccn2Cc2ccc(C3=CCN4CCCC3C4)cc2)c1 (single isomer, unassigned) [Example 14, 1-(1-(4-(1-azabicyclo[3.3.1]non-3-en-4-yl)benzyl)-1H-indol-5-yl)-5-methyl-1H-pyrazole-3-carboxamide]",,,652,2100
"CC(=O)N1CC=C(c2ccc(Cn3ccc4cc(-n5nc(C(N)=O)cc5C)ccc43)cc2)CC1 [Example 1-4, 1-(1-(4-(1-acetyl-1,2,3,6-tetrahydropyridin-4-yl)benzyl)-1H-indol-5-yl)-5-methyl-1H-pyrazole-3-carboxamide]",121,252,,
"Cc1cc(C(N)=O)nn1-c1ccc2c(ccn2Cc2ccc(CC3CCN(C)C3)cc2)c1 (racemic) [Example 31, rac-5-methyl-1-(1-(4-((1-methylpyrrolidin-3-yl)methyl)benzyl)-1H-indol-5-yl)-1H-pyrazole-3-carboxamide]",350,747,,
"Cc1cc(C(N)=O)nn1-c1ccc2c(ccn2Cc2ccc(C3CCC4(CC3)CN(C)C4)cc2)c1 [Example 16-4, 5-methyl-1-(1-(4-(2-methyl-2-azaspiro[3.5]nonan-7-yl)benzyl)-1H-indol-5-yl)-1H-pyrazole-3-carboxamide]",186,756,,
"Cc1cc(C(N)=O)nn1-c1ccc2c(ccn2Cc2ccc([C@H]3C[C@H]4CNC[C@H]4C3)cc2)c1 [Example 39, 5-methyl-1-(1-(4-((3aR,5r,6aS)-octahydrocyclopenta[c]pyrrol-5-yl)benzyl)-1H-indol-5-yl)-1H-pyrazole-3-carboxamide]",175,907,,
"Cc1cc(C(N)=O)nn1-c1ccc2c(ccn2Cc2ccc([C@H]3C[C@@H]4CN(C)C[C@@H]4C3)cc2)c1 [Example 26-2, 5-methyl-1-(1-(4-((3aR,5s,6aS)-2-methyloctahydrocyclopenta[c]pyrrol-5-yl)benzyl)-1H-indol-5-yl)-1H-pyrazole-3-carboxamide]",80,362,,
"Cc1cc(C(N)=O)nn1-c1ccc2c(ccn2Cc2ccc(-c3cnc4c(c3)OCCN4C)cc2)c1 [Example 1-9, 5-methyl-1-(1-(4-(4-methyl-3,4-dihydro-2H-pyrido[3,2-b][1,4]oxazin-7-yl)benzyl)-1H-indol-5-yl)-1H-pyrazole-3-carboxamide]",109,318,,
"Cc1cc(C(N)=O)nn1-c1ccc2c(ccn2Cc2ccc(C3=CCN4CCCC3C4)cc2)c1 (single isomer, unassigned) [Example 13, 1-(1-(4-(1-azabicyclo[3.3.1]non-3-en-4-yl)benzyl)-1H-indol-5-yl)-5-methyl-1H-pyrazole-3-carboxamide]",437,1530,,
"Cc1cc(C(N)=O)nn1-c1ccc2c(c1)c(C1=CCN(C)CC1)cn2Cc1ccc(-c2ccc(S(C)(=O)=O)cc2)cc1 [Example 19-2, 5-methyl-1-(3-(1-methyl-1,2,3,6-tetrahydropyridin-4-yl)-1-((4′-(methylsulfonyl)-[1,1′-biphenyl]-4-yl)methyl)-1H-indol-5-yl)-1H-pyrazole-3-carboxamide]",346,1020,,
"Cc1cc(C(N)=O)nn1-c1ccc2c(ccn2Cc2ccc(C3CCCNC3)cc2)c1 (stereo not shown) [Example 2-4, 5-methyl-1-(1-(4-(piperidin-3-yl)benzyl)-1H-indol-5-yl)-1H-pyrazole-3-carboxamide]",429,1630,,
"Cc1cc(C(N)=O)nn1-c1ccc2c(ccn2Cc2ccc(-c3ccc(S(C)(=O)=O)cc3)cc2)c1 [Example 1-6, 5-methyl-1-(1-((4′-(methylsulfonyl)-[1,1′-biphenyl]-4-yl)methyl)-1H-indol-5-yl)-1H-pyrazole-3-carboxamide]",101,250,,
"Cc1cn(Cc2ccc([C@@H]3C[C@@H]4CN(C)C[C@@H]4C3)cc2)c2ccc(-n3nc(C(N)=O)cc3C)cc12 [Example 43, 5-Methyl-1-(3-methyl-1-(4-((3aR,5r,6aS)-2-methyloctahydrocyclopenta[c]pyrrol-5-yl)benzyl)-1H-indol-5-yl)-1H-pyrazole-3-carboxamide]",215,740,,
"Cc1cc(C(N)=O)nn1-c1ccc2c(ccn2Cc2ccc(-c3ccc(CN)cc3)cc2)c1 [Example 1-34, 1-(1-((4′-(aminomethyl)-[1,1′-biphenyl]-4-yl)methyl)-1H-indol-5-yl)-5-methyl-1H-pyrazole-3-carboxamide]",248,743,,
